According to patent US7414134B2, “B1 bradykinin receptor antagonists” (Amgen Inc., priority 2004, dated 2008):
Ends that are not written are not given here.

Experiments:
hB1 receptor = biological target: T1, hB1 receptor (Homo sapiens, UniProt P46663); assay: In vitro assay of human B1 receptor function using calcium flux (aequorin); format: cell-based; conditions: CHO D-/hB1/Aequorin cells, agonist 20 nM des-Arg10-Kallidin (EC80); read-out: binding IC50's to hB1 receptor function
T1 construct: expressed in transfected cells; host or cells: CHO D- cells stably expressing hB1 and aequorin
T1 sequence (P46663 1-353): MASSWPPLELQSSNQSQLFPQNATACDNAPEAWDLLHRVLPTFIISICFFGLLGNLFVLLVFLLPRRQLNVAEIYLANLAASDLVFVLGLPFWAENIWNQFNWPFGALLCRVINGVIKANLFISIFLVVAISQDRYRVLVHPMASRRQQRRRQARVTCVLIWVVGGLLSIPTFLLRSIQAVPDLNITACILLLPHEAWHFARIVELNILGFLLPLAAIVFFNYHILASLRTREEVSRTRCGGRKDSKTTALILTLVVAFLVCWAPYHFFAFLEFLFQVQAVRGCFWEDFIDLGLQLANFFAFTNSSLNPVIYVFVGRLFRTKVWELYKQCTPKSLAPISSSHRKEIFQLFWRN
Text: Activation of the Gq linked B1 receptor results in an increase in intracellular calcium. The calcium sensitive photoprotein aequorin can, therefore, be used as an indicator of B1 receptor activation. Aequorin is a 21-kDa photoprotein that forms a bioluminescent complex when linked to the chromophore cofactor coelenterazine. Following the binding of calcium to this complex, an oxidation reaction of coelenterazine results in the production of apoaequorin, coelenteramide, CO2, and light that can be detected by conventional luminometry.
A stable CHO D-/hB1/Aequorin cell line was established and the cells were maintained in suspension in spinner bottles containing a 1:1 ratio of DMEM and HAM F12 (Gibco 11765-047), high glucose (Gibco 11965-084), 10% Heat Inactivated Dialyzed serum (Gibco 26300-061), 1× Non-Essential Amino Acids (Gibco 11140-050), 1× Glutamine-Pen-Strep (Gibco 10378-016), and Hygromycin, 300 μg/mL (Roche 843555). […]
Media was removed from the wells and replaced with 60 μL of serum free HAM's F12 with 30 mM HEPES (pH 7.5) and 15 μM coelenterazine (Coelenterazine h Luciferin #90608 from Assay Designs). […] The hB1 agonist, des-Arg10-Kallidin, was added to the cell plate and another 12 images were recorded to determine the IC50 of the antagonist(s).

[1] = cited from earlier work

IC50 (hB1 receptor)	Molecule	half-life of BK in plasma [1]
< 1000 nM	Cc1ccc(S(=O)(=O)N[C@H](Cc2cn([C@@H]3CCOc4cc(CN5CCC(F)CC5)ccc43)nn2)C(N)=O)cc1 [Example 7, (R)-3-(1-((R)-7-((4-fluoropiperidin-1-yl)methyl)-3,4-dihydro-2H-chromen-4-yl)-1H-1,2,3-triazol-4-yl)-2-(4-methylphenylsulfonamido)propanamide]	
	RPPGFSPFR [BK, Bradykinin]	approximately 17 seconds
